In US10368545B2, “Substituted 2-thioimidazolylcarboxamides as pesticides” (BAYER CROPSCIENCE AKTIENGESELLSCHAFT, priority 2015, dated 2019):

Legend:
[1] = log P by HPLC on reversed-phase C18 columns (OECD Guideline 117); assay type: physicochemical; details: for logP[a]: method [a]; for logP[b]: method [b]
In short: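 Reversed-phase C18 HPLC per OECD 117, LC-MS with a linear 10% to 95% acetonitrile gradient. Acidic method at pH 2.7 with 0.1% formic acid; neutral method at pH 7.8 with 0.001 M ammonium hydrogencarbonate.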

[2] = system: southern root-knot nematode (Meloidogyne incognita); test: Meloidogyne incognita test (gall formation on lettuce); assay type: in vivo; details: application rate 20 ppm; after 14 days
Procedure: Meloidogyne incognita Test
Solvent: 125.0 parts by weight of acetone
To produce a suitable preparation of active compound, 1 part by weight of active compound is mixed with the stated amount of solvent and the concentrate is diluted with water to the desired concentration.
Vessels are filled with sand, active compound solution, an egg/larvae suspension of the southern root-knot nematode (Meloidogyne incognita) and lettuce seeds. The lettuce seeds germinate and the plants develop. The galls develop on the roots.
After 14 days, the nematicidal efficacy in % is determined by the formation of galls. 100% means that no galls were found; 0% meant that the number of galls on the treated plants corresponds to the untreated control.

[3] = system: green peach aphid (Myzus persicae); test: Myzus persicae spray test (Chinese cabbage leaf discs); assay type: in vivo; details: application rate 500 g/ha; after 5 or 6 days; Chinese cabbage leaf discs
In short: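 Compound is taken up in acetone/DMF and made up with emulsifier-containing water (1000 ppm), then sprayed onto aphid-infested cabbage leaf discs. After 5 or 6 days, percent kill is determined (100% = all dead, 0% = none).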

[4] = system: green peach aphid (Myzus persicae); test: Contrasting example: Myzus persicae spray test (MYZUPE); assay type: in vivo; details: MYZUPE, 100 g ai/ha, 6 dat
In short: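 Chinese cabbage leaf discs carrying all stages of the aphid were sprayed with compound in acetone/dimethylformamide, diluted with water containing alkylaryl polyglycol ether emulsifier. After the set period, efficacy was scored as % of aphids killed (100% = all dead, 0% = none).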

[5] = system: larvae of the mustard beetle (Phaedon cochleariae); test: Phaedon cochleariae spray test (Chinese cabbage leaf discs); assay type: in vivo; details: application rate 500 g/ha, after 7 days
Procedure: Phaedon cochleariae—Spray Test
(§1) Solvents: 78.0 parts by weight of acetone • • 1.5 parts by weight of dimethylformamide
(§2) Emulsifier: alkylaryl polyglycol ether
(§3) To produce a suitable active compound preparation, 1 part by weight of active compound is dissolved using the stated parts by weight of solvent and made up with water containing an emulsifier concentration of 1000 ppm until the desired concentration is attained. To produce further test concentrations, the preparation is diluted with emulsifier-containing water.
After 7 days, the efficacy in % is determined. 100% means that all beetle larvae were killed; 0% means that no beetle larvae were killed.

[6] = system: larvae of the mustard beetle (Phaedon cochleariae); test: Contrasting example: Phaedon cochleariae spray test (PHAECO); assay type: in vivo; details: 500 g ai/ha, 7 dat
Procedure: Phaedon cochleariae—Spray Test (PHAECO)
as §1, §2, §3
After the desired period of time, the efficacy in % is determined. 100% means that all beetle larvae were killed; 0% means that no beetle larvae were killed.

Compound | logP[a] [1] | logP[b] [1] | nematicidal efficacy (formation of galls) [2] | efficacy (aphids killed) [3] | % efficacy [4] | efficacy (beetle larvae killed) [5] | % efficacy [6]
CN(C(=O)c1cnc(SCc2ccccc2)n1C)c1cccnc1 [I-A-7] | 1.68 | 1.91 | 90% | 90% | 70% |  | 
CC(C)=CCSc1ncc(C(=O)N(C)c2cccnc2)n1C [I-A-35] | 1.61 | 1.96 | 90% |  |  |  | 
CN(C(=O)c1c(Cl)nc(Sc2ncccn2)n1C)c1cccnc1 [I-A-15] | 1.24 | 1.34 |  |  |  | 83% | 83%

Further lines, with some results ahead:

logP[a] [1] | logP[b] [1] | Compound | nematicidal efficacy (formation of galls) [2] | efficacy (aphids killed) [3] | % efficacy [4] | efficacy (beetle larvae killed) [5] | % efficacy [6]
2.56 | 2.72 | CN(C(=O)c1cnc(S(=O)(=O)c2ccc(Cl)c(C(F)(F)F)c2)n1C)c1cccnc1 [I-A-80] |  |  |  | 100% | 100%
2.16 | 2.29 | CN(C(=O)c1cnc([S+]([O-])c2ccc(Cl)c(C(F)(F)F)c2)n1C)c1cccnc1 (stereo not drawn) [I-A-79] |  | 90% |  | 100% | 100%
